Measured values from patent publication EP4810052A2, “HCRHR2 SELECTIVE POLYPEPTIDES” (Gubra A/S, priority 2023, dated 2026).
Where two headings read alike, the source gives them in different places. Starred links: 1 amine or outer side, 2 acyl side, 3 side chain; linkers in the order of their positions; H or OH if unused. Non-standard residues stand in square brackets, D forms with d. Residues, ends and D or L forms follow the SMILES beside them. Groups on a side chain read outwards from the residue. *: point of attachment. C20 diacid = O=C(O)CCCCCCCCCCCCCCCCCCC(=O)*; γGlu = O=C(O)[C@H](CCC(=O)[*:2])N[*:1]; NMeI = CC[C@H](C)[C@H](NC)C(=O)O; Nle = CCCC[C@H](N)C(=O)O; AEEA = NCCOCCOCC(=O)O; Aib = CC(C)(N)C(=O)O

How the values were obtained:
hCRHR1 = target: T1, hCRHR1 (Homo sapiens, UniProt P34998); assay: HTRF cAMP assay, determination of hCRHR1 potency (peptide libraries 5 conc., purified peptides 11 conc.); format: cell-based
T1 sequence (P34998 24-415): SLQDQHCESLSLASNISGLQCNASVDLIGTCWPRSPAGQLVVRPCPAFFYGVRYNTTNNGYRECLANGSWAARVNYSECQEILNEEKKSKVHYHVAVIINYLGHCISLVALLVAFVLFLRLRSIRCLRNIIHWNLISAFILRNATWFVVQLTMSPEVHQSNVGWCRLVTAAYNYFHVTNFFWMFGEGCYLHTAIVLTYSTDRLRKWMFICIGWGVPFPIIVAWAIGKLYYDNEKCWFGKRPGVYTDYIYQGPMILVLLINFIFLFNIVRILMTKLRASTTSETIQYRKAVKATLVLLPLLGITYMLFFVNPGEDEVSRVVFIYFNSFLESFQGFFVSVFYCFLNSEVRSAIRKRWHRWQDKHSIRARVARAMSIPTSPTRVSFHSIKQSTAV
Outline: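 Cellular cAMP was read by time-resolved FRET between d2-labelled cAMP and cryptate anti-cAMP antibody. The cells were freshly thawed suspension CHO-K1 cells stably expressing human CRHR1.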

PK in rats = format: in vivo; parameters: T½ / MRT: unit not given here; settings: Rat
Outline: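 Lean male Sprague Dawley rats (n = 3 per group) got a two-peptide combination at 50 nmol/kg IV and SC. Plasma was sampled from 0.17 to 96 h post dose and analysed by LC-MSMS. PK parameters came from non-compartmental analysis.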

[1] = pH 7.5
hCRHR2 = target: T2, hCRHR2 (Homo sapiens, UniProt Q13324); assay: HTRF cAMP assay, determination of hCRHR2 potency (peptide libraries 5 conc., purified peptides 11 conc.); format: cell-based
T2 sequence (Q13324 1-411): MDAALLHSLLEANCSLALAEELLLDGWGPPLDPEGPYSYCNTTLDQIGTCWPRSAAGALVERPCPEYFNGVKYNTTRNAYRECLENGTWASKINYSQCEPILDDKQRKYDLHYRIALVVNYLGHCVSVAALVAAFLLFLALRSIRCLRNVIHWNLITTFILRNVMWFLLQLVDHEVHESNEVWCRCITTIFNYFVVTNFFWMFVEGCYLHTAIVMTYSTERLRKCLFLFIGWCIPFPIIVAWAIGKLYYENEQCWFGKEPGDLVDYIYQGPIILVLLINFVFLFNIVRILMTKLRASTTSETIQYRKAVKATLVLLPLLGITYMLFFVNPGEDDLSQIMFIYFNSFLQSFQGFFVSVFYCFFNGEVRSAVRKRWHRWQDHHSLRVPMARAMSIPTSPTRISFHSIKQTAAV
Outline: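 Read-out was HTRF competitive cAMP detection (d2-labelled cAMP, cryptate-labelled antibody) in suspended, freshly thawed CHO-K1 cells stably carrying human CRHR2.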

[2] = Thioflavin T fibril formation assay of purified peptides; format: physicochemical; parameters: key: Amyloid fibril formation detected by an increase in ThT fluorescence was denoted with "Yes"; samples without increasing ThT fluorescence hence not forming amyloid fibrils were denoted "No"
Outline: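 Fibril formation read as rising ThT emission at 480 nm (450 nm excitation), 4 µM ThT, over 96 h at 40°C with alternating 5-min rest and 700 rpm shaking cycles, in triplicate. Samples were 200 µM compound in 50 mM phosphate at various pH values, or co-formulated at 200 µM in semaglutide product at pH 7.4.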

[3] = Table 5, purified peptides, read-out: hCRHR1 EC50
[4] = Table 5, purified peptides, read-out: hCRHR2 EC50

CCCC[C@H](NC(=O)[C@@H](NC(=O)[C@H](CCC(=O)O)NC(=O)[C@H](C)NC(=O)[C@H](CC(N)=O)NC(=O)C(C)(C)NC(=O)[C@H](CCCCNC(=O)COCCOCCNC(=O)COCCOCCNC(=O)CC[C@H](NC(=O)CC[C@H](NC(=O)CCCCCCCCCCCCCCCCCCC(=O)O)C(=O)O)C(=O)O)NC(=O)[C@H](C)NC(=O)[C@H](CCC(N)=O)NC(=O)[C@H](CCC(=O)O)NC(=O)[C@H](CCCNC(=N)N)NC(=O)[C@H](C)NC(=O)[C@H](C)NC(=O)[C@H](CCCNC(=N)N)NC(=O)[C@H](C)NC(=O)[C@H](CCCNC(=N)N)NC(=O)[C@H](C)NC(=O)[C@H](CCC(N)=O)NC(=O)[C@H](CO)NC(=O)[C@H](CC(C)C)NC(=O)[C@H](CC(C)C)NC(=O)[C@@H](NC(=O)[C@H](CCC(N)=O)NC(=O)[C@H](CC(C)C)NC(=O)[C@H](CC(C)C)NC(=O)CNC(=O)[C@@H](NC(=O)[C@@H]1CCCN1C(=O)[C@@H](NC(=O)[C@H](CC(=O)O)NC(=O)[C@H](CC(C)C)NC(=O)[C@H](CO)NC(=O)[C@H](CC(C)C)NC(=O)[C@@H](NC(=O)[C@@H](NC)[C@@H](C)CC)C(C)C)C(C)C)[C@@H](C)CC)[C@@H](C)CC)[C@@H](C)CC)C(=O)N[C@@H](C)C(=O)N[C@@H](CCC(=O)O)C(=O)N[C@H](C(N)=O)C(C)C [compound 132] (H-[NMeI]VLSLDVPIGLLQILLSQARARAAREQAK([AEEA-AEEA-γGlu-γGlu-C20 diacid])[Aib]NAEI[Nle]AEV-NH2)
EC50 (hCRHR1; Table 4, library peptides having X^38 = Nle, read-out: hCRHR1 pEC50 (converted)): 794 nM | EC50 (hCRHR1; [3]): > 5000 nM | MRT (PK in rats): 6.2 | T½ (PK in rats): 4.8 | Solubility pH 7.5, target conc. =10 mg/mL (measured mg/mL) [1]: 11 mg/mL | EC50 (hCRHR2; Table 4, library peptides having X^38 = Nle, read-out: hCRHR2 pEC50 (converted)): 0.02 nM | Selectivity ratio (hCRHR1/ hCRHR2) (hCRHR2; Table 5): >6494 | EC50 (hCRHR2; [4]): 0.77 nM | Fibrillation (pH 7.5) ([2]; pH 7.5): No

CCCC[C@H](NC(=O)[C@@H](NC(=O)[C@H](CCC(=O)O)NC(=O)[C@H](C)NC(=O)[C@H](CC(N)=O)NC(=O)[C@H](CCC(=O)O)NC(=O)[C@H](CCCCNC(=O)COCCOCCNC(=O)COCCOCCNC(=O)CC[C@H](NC(=O)CC[C@H](NC(=O)CCCCCCCCCCCCCCCCCCC(=O)O)C(=O)O)C(=O)O)NC(=O)[C@H](C)NC(=O)[C@H](CCC(N)=O)NC(=O)[C@H](CCC(=O)O)NC(=O)[C@H](CCCNC(=N)N)NC(=O)[C@H](C)NC(=O)[C@H](C)NC(=O)[C@H](CCCNC(=N)N)NC(=O)[C@H](C)NC(=O)[C@H](CCCNC(=N)N)NC(=O)[C@H](C)NC(=O)[C@H](CCC(N)=O)NC(=O)[C@H](CO)NC(=O)[C@H](CC(C)C)NC(=O)[C@H](CC(C)C)NC(=O)[C@@H](NC(=O)[C@H](CCC(N)=O)NC(=O)[C@H](CC(C)C)NC(=O)[C@H](CC(C)C)NC(=O)CNC(=O)[C@@H](NC(=O)[C@@H]1CCCN1C(=O)[C@@H](NC(=O)[C@H](CC(=O)O)NC(=O)[C@H](CC(C)C)NC(=O)[C@H](CO)NC(=O)[C@H](CC(C)C)NC(=O)[C@@H](NC(=O)[C@@H](NC)[C@@H](C)CC)C(C)C)C(C)C)[C@@H](C)CC)[C@@H](C)CC)[C@@H](C)CC)C(=O)N[C@@H](C)C(=O)N[C@@H](CCC(=O)O)C(=O)N[C@H](C(N)=O)C(C)C [compound 101] (H-[NMeI]VLSLDVPIGLLQILLSQARARAAREQAK([AEEA-AEEA-γGlu-γGlu-C20 diacid])ENAEI[Nle]AEV-NH2)
EC50 (hCRHR1; [3]): > 5000 nM | MRT (PK in rats): 6.8 | T½ (PK in rats): 6.5 | Solubility pH 7.5, target conc. =10 mg/mL (measured mg/mL) [1]: 11 mg/mL | Selectivity ratio (hCRHR1/ hCRHR2) (hCRHR2; Table 5): 5435 | EC50 (hCRHR2; [4]): 0.92 nM | Fibrillation (pH 7.5) ([2]; pH 7.5): No

CC[C@H](C)[C@H](N)C(=O)N[C@H](C(=O)N[C@@H](CC(C)C)C(=O)N[C@@H](CO)C(=O)N[C@@H](CC(C)C)C(=O)N[C@@H](CC(=O)O)C(=O)N[C@H](C(=O)N1CCC[C@H]1C(=O)N[C@H](C(=O)NCC(=O)N[C@@H](CC(C)C)C(=O)N[C@@H](CC(C)C)C(=O)N[C@@H](CCC(N)=O)C(=O)N[C@H](C(=O)N[C@@H](CC(C)C)C(=O)N[C@@H](CC(C)C)C(=O)N[C@@H](CCC(=O)O)C(=O)N[C@@H](CCC(N)=O)C(=O)N[C@@H](C)C(=O)N[C@@H](CCCNC(=N)N)C(=O)N[C@@H](C)C(=O)N[C@@H](CCCNC(=N)N)C(=O)N[C@@H](C)C(=O)N[C@@H](C)C(=O)N[C@@H](CCCNC(=N)N)C(=O)N[C@@H](CCC(=O)O)C(=O)N[C@@H](CCC(N)=O)C(=O)N[C@@H](C)C(=O)N[C@@H](CCCCNC(=O)COCCOCCNC(=O)COCCOCCNC(=O)CC[C@H](NC(=O)CC[C@H](NC(=O)CCCCCCCCCCCCCCCCCCC(=O)O)C(=O)O)C(=O)O)C(=O)N[C@@H](CCC(=O)O)C(=O)N[C@@H](CC(N)=O)C(=O)N[C@@H](C)C(=O)N[C@@H](CCC(=O)O)C(=O)N[C@H](C(=O)N[C@@H](CC(C)C)C(=O)N[C@@H](C)C(=O)N[C@@H](CCC(=O)O)C(=O)N[C@H](C(N)=O)C(C)C)[C@@H](C)CC)[C@@H](C)CC)[C@@H](C)CC)C(C)C)C(C)C [SEQ ID NO: 17] (H-IVLSLDVPIGLLQILLEQARARAAREQAK([AEEA-AEEA-γGlu-γGlu-C20 diacid])ENAEILAEV-NH2)
EC50 (hCRHR1; purified peptides, CHO-K1 cells stably expressing hCRHR1, cAMP HTRF, read-out: hCRHR1 EC50): > 5000 nM | MRT (PK in rats): 7.6 | T½ (PK in rats): 7.1 | Solubility pH 7.5, target conc. =10 mg/mL (measured mg/mL) [1]: 9.2 mg/mL | Selectivity ratio (hCRHR1/ hCRHR2) (hCRHR2; hCRHR1-EC50/hCRHR2-EC50): >2381 | EC50 (hCRHR2; purified peptides, CHO-K1 cells stably expressing hCRHR2, cAMP HTRF, read-out: hCRHR2 EC50): 2.1 nM | Fibrillation (pH 7.5) ([2]; pH 7.5, ThT assay): No
